Test results taken from patent US20100248390A1, “COMPOSITIONS AND METHODS FOR IDENTIFYING LIGANDS OF ODORANT RECEPTORS” (DUKE UNIVERSITY, priority 2009, published 2010).

Assays:
Test in all cases: CRE-luciferase assay of odorant receptor activation (Dual-Glo, Hana3A cells, RTP1S), dose-response EC50
Type in all cases: cell-based
[1] = test system: mouse odorant receptors (ORs); conditions: for log EC50, MOR203-1: receptor MOR203-1; for log EC50, MOR261-1: receptor MOR261-1
Excerpt: (§1) Cloning mouse and human ORs. […] OR open reading frames were amplified from genomic DNA using proofreading KOD DNA polymerase (Toyobo/Novagen) and subcloned into pCI expression vectors (Promega) containing the first 20 residues of human rhodopsin (Rho tag). The sequences of the cloned receptors were verified by sequencing (3100 Genetic Analyzer, ABI Biosystems). Immunocytochemistry and FACS analysis. […] For FACS analysis, phycoerythrin (PE)-conjugated anti-mouse IgG (Jackson Immunologicals) was used. In order to monitor the transfection efficiency, Green Fluorescent Protein (GFP) was co-transfected with the OR. The intensity of receptor cell surface expression was calculated as the ratio of PE and GFP expression. 7-aminoactinomycin D (Calbiochem) was added before flow cytometry to mark dead cells which were excluded from the analysis. The gate and mean of PE positive cells was normalized by GFP values. Luciferase assay. […] Odorant receptor activation leads to an increase in intracellular cAMP; CRE-luciferase (Stratagene) was used to measure this change. […] Hana3A cells were plated on poly-D-lysine-coated 96-well plates (BioCoat; Becton Dickinson). […] For each 96-well plate transfected, 1 μg of CRE-Luc, 1 μg of pRL-SV40, 5 μg of odorant receptor plasmid, and 1 μg of RTP1S was used. Approximately 24 hours post transfection, the medium was replaced with CD293 chemically defined medium (Gibco) and the plate was incubed for 30 min at 37° C. The medium was then replaced with 25 μL of odorant solution diluted in CD293 and the plate was incubated for 4 hrs at 37° C. and 5% CO2. The manufacturer's protocols for measuring luciferase and Renilla luciferase activities was followed. […] All luminescence values were divided by the Renilla Luciferase activity to control for transfection efficiency in a given well. Normalized luciferase activity was calculated using the formula (LN−Lmin)/(Lmax−Lmin), where LN is the luminescence of firefly luciferase in response to the odorant, Lmin is the minimum luciferase value on a plate or set of plates, and Lmax is the maximum luciferase value on a plate or set of plates. The data was analyzed using Microsoft Excel and GraphPad Prism 4. Screening procedure. The entire OR library was stimulated with eight separate odorant mixtures formed from 93 odorants (FIG. 12). […] A comparison between the 93 individual odorants at a 100 μM dose and a no-odor control was performed for all 290 […]. Each comparison was performed in triplicate; statistical significance was assessed by t-test (uncorrected for multiple comparisons). […] A single odorant was used on each plate to avoid cross-contamination, and each OR odorant dose was tested at least three times. The data was fit to a sigmoidal curve. […] Physicochemical descriptors. […] Receptor descriptors. […] Correlations between descriptors and responses. […] All odorants for which there were fewer than 3 responsive receptors were eliminated. For all remaining odorant pairs the Pearson correlation between EC50 vectors and the Euclidean distance between descriptor vectors was calculated. The Pearson correlation between these two sets of distances was then measured. Optimizing descriptors. […] In this method one begins with an empty set of descriptors. Each descriptor is combined with the previous set of descriptors and correlation values are computed for all of these candidate sets of descriptors. To reduce overfitting, the data is randomly divided into ten subsets and correlation values are computed for each leave-one out subset. The final correlation coefficient for each set of descriptors is the average of the correlation coefficients for each subset. The set with the best correlation coefficient then becomes the new set of descriptors and the process is repeated until the correlation coefficient increases by less than 0.004 in three consecutive iterations.

[2] = target: T1, human odorant receptors (ORs) (Homo sapiens, UniProt O76002); conditions: receptor OR2J2; 0 = no response; read-out: log EC50, OR2J2 (converted)
T1 construct: OR open reading frames were amplified from genomic DNA; expressed in transfected cells; host or cells: Hana3A cells, co-transfected with RTP1S, CRE-luciferase and pRL-SV40
T1 sequence (O76002 1-312): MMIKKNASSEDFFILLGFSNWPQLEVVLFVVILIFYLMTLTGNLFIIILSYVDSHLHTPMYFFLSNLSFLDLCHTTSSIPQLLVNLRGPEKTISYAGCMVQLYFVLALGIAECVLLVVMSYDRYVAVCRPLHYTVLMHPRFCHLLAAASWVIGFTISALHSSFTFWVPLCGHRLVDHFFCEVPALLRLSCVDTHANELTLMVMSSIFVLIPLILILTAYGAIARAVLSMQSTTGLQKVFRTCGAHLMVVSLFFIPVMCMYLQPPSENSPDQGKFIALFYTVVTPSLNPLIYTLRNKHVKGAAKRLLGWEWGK
Excerpt: as §1, with “For all remaining odorant pairs the Pearson correlation between EC50 vectors and the Euclidean distance between descriptor vectors was calculated.” left out, “subset.” for “subset. The set with the best correlation coefficient then becomes the new set of descriptors and the process is repeated until the correlation coefficient increases by less than 0.004 in three consecutive iterations.”
(§2) The entire OR library was stimulated with one of 8 odorant mixtures drawn from 93 odorants chosen to represent diverse functional groups, sizes, and structures (Table 3). Each mixture was applied at five different concentrations. […] The 93 odorants were then applied individually at 100 μM to the 290 mixture-responsive ORs.

[3] = target: T2, human odorant receptors (ORs) (Homo sapiens, UniProt Q9Y3N9); conditions: receptor OR2W1; 0 = no response; read-out: log EC50, OR2W1 (converted)
T2 construct: OR open reading frames were amplified from genomic DNA; expressed in transfected cells; host or cells: Hana3A cells, co-transfected with RTP1S, CRE-luciferase and pRL-SV40
T2 sequence (Q9Y3N9 1-320): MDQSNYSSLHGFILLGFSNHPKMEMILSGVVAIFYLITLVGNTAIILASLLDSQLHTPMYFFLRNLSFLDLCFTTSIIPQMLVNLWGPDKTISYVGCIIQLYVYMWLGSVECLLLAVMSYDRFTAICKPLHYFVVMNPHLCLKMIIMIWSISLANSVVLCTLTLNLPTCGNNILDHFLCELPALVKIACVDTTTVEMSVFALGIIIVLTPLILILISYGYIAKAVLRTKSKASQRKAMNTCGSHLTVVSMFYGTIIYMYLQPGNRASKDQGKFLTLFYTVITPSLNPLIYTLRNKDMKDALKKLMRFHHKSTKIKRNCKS
Excerpt: as §1, with “For all remaining odorant pairs the Pearson correlation between EC50 vectors and the Euclidean distance between descriptor vectors was calculated.” left out, “subset.” for “subset. The set with the best correlation coefficient then becomes the new set of descriptors and the process is repeated until the correlation coefficient increases by less than 0.004 in three consecutive iterations.”
as §2

[4] = target: T3, human odorant receptors (ORs) (Homo sapiens, UniProt Q8TCB6); conditions: receptor OR51E1
T3 construct: OR open reading frames were amplified from genomic DNA; expressed in transfected cells; host or cells: Hana3A cells, co-transfected with RTP1S, CRE-luciferase and pRL-SV40
T3 sequence (Q8TCB6 1-318): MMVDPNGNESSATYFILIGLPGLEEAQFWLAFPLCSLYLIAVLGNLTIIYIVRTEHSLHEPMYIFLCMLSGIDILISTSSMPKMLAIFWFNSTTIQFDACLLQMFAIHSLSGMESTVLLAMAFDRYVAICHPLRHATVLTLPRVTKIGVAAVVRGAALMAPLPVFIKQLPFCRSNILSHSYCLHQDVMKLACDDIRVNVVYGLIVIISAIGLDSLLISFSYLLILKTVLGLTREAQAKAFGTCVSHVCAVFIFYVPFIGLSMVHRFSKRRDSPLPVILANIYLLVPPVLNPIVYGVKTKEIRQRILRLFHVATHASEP
Excerpt: as §1, with “For all remaining odorant pairs the Pearson correlation between EC50 vectors and the Euclidean distance between descriptor vectors was calculated.” left out, “subset.” for “subset. The set with the best correlation coefficient then becomes the new set of descriptors and the process is repeated until the correlation coefficient increases by less than 0.004 in three consecutive iterations.”
as §2

[5] = target: T4, human odorant receptors (ORs) (Homo sapiens, UniProt Q8NGJ5); conditions: receptor OR51L1; read-out: log EC50 of odorant at OR51L1 (0 = no response) (converted)
T4 construct: OR open reading frames were amplified from genomic DNA; expressed in transfected cells; host or cells: Hana3A cells, co-transfected with RTP1S, CRE-luciferase and pRL-SV40
T4 sequence (Q8NGJ5 1-315): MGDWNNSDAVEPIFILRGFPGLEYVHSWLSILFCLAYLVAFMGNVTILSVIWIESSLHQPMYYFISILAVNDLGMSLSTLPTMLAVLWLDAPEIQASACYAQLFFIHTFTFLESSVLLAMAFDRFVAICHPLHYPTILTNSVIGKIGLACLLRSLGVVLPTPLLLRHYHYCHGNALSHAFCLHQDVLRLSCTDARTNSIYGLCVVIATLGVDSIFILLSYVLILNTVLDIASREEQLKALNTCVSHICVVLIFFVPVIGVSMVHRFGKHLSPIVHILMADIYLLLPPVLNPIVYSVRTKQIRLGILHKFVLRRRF
Excerpt: as §1, with “For all remaining odorant pairs the Pearson correlation between EC50 vectors and the Euclidean distance between descriptor vectors was calculated.” left out, “subset.” for “subset. The set with the best correlation coefficient then becomes the new set of descriptors and the process is repeated until the correlation coefficient increases by less than 0.004 in three consecutive iterations.”
as §2

log EC50, MOR203-1 ([1]; 0 = no response)	log EC50, MOR261-1 ([1]; 0 = no response)	EC50 [2]	EC50 [3]	log EC50, MOR268-1 ([1]; receptor MOR268-1, 0 = no response)	log EC50 (Table 4 value), OR51E1 [4]	Structure (SMILES)	log EC50 of odorant at MOR1-1 (0 = no response) ([1]; receptor MOR1-1)	EC50 [5]
−4.456	−4.914	69.2 µM	23.4 µM	–	–	CCCCCCCCCO [1-Nononol]	–	–
−3.563	−5.192	69.2 µM	7.45 µM	−3.63	–	CCCCCCCCO [1-Octanol]	–	–
–	–	–	–	–	−3.473	CCCCOC(=O)C(C)OC(=O)CCC (stereo not drawn) [Butyl butyryl actate]	–	–
–	–	–	–	–	–	CCCCCC(=O)O [Hexanoic acid]	−4.625	147 µM
